Consider ten compounds from patent US20250388575A1, “HETEROBIFUNCTIONAL COMPOUNDS AND METHODS OF TREATING DISEASE” (Halda Therapeutics OpCo, Inc., priority 2022, published 2025).

The test system of assay [1] is T-Rex 293 cell line SC3 cells lacking increased expression of androgen receptor protein. Description: Cellular growth inhibition, T-Rex 293 SC3 cells lacking increased androgen receptor expression (no doxycycline), CellTiter-Glo. In kind it is cell-based. The note with it: T-Rex 293 SC3 cells lacking increased androgen receptor expression (not exposed to doxycycline), 72 hours, CellTiter-Glo; read-out: GI50. In short, it runs like this: (§1)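 SC3, a T-Rex 293 clone with doxycycline-inducible wild-type androgen receptor, was seeded in phenol red-free DMEM with 10% charcoal-dextran FBS, with or without 10 ng/mL doxycycline. Compound added at 24 h (0.5% DMSO) for 72 h at 37° C. CellTiter-Glo 2.0 luminescence; GI50 from four-parameter fit.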
In general terms: ATP-based viability assays read luminescence as a measure of living cells.

A further assay deals with VCaP cells. The assay is described as follows: Cellular growth inhibition assay for VCaP cells, CellTiter-Glo. The format is cell-based, human. Conditions: VCaP cells, 72 hours, CellTiter-Glo, read-out: GI50. In short, it runs like this:
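GI50 values come from four-parameter curve fits of luminescence data normalized to a zero baseline. Compound, in medium with 0.5% DMSO, was added one day after plating and left for 72 h before CellTiter-Glo 2.0 addition.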

For assay [2], the system named is T-Rex 293 cell line SC3 cells having increased expression of androgen receptor protein. Description: Cellular growth inhibition, T-Rex 293 SC3 cells with increased androgen receptor expression (doxycycline), CellTiter-Glo. The format is cell-based. The note with it: T-Rex 293 SC3 cells with increased androgen receptor expression (exposed to 10 ng/mL doxycycline), 72 hours, CellTiter-Glo; read-out: GI50. In short, it runs like this: as §1

In another assay the target is androgen receptor (Homo sapiens, UniProt P10275). Description: Assay for binding affinity to androgen receptor ([3H]methyltrienolone radioligand, cell cytosol). The note with it: binding to the androgen receptor, 1 nM [3H]methyltrienolone, 24 hr at 4° C. The protocol: Fractions of cell cytosol (106 cell/point) were incubated for 24 hr at 4° C. with 1 nM [^3H]methyltrienolone in the absence or presence of the test compound in a buffer containing 25 mM Hepes-Tris (pH 7.4), 1 mM EDTA, 10 mM Na2MoO4, 2 mM DTT, 5 µM triamcinolone acetonide, and 10% glycerol. Nonspecific binding was determined in the presence of 1 μM testosterone. Following incubation, the samples were filtered rapidly under vacuum through glass fiber filters (GF/B, Packard) presoaked with 0.3% PEI and rinsed several times with ice-cold 50 mM Tris-HCl using a 96-sample cell harvester (Unifilter, Packard). The filters were dried then counted for radioactivity in a scintillation counter (Topcount, Packard) using a scintillation cocktail (Microscint 0, Packard). The results are expressed as a percent inhibition of the control radioligand specific binding. The standard reference compound is testosterone, which is tested in each experiment at several concentrations to obtain a competition curve from which its IC50 is calculated.
Sequence of androgen receptor (P10275 whole entry, looked up): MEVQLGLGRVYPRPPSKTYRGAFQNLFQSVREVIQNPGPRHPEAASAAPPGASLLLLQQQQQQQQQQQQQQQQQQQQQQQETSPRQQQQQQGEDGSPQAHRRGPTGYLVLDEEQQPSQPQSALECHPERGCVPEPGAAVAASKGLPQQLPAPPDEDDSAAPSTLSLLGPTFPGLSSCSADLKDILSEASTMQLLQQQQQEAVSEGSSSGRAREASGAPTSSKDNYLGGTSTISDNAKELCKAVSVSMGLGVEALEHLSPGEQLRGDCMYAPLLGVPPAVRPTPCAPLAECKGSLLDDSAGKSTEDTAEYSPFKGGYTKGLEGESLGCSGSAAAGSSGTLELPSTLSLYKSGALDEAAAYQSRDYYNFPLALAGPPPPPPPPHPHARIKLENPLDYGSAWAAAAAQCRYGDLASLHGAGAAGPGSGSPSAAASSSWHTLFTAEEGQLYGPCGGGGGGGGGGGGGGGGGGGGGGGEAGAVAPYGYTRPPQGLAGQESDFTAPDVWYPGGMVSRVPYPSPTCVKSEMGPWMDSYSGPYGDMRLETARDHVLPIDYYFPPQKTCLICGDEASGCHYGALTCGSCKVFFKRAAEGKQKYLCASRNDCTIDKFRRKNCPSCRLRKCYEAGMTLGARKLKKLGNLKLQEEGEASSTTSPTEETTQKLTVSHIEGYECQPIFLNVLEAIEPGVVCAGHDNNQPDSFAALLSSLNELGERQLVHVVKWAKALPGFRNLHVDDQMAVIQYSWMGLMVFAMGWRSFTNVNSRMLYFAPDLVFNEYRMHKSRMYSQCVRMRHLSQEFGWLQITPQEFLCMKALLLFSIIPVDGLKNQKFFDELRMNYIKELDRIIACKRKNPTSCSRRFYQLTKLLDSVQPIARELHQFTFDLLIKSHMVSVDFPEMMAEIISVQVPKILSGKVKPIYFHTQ

A further assay has as its system T47D cells. The assay is described as follows: Cellular growth inhibition assay for T47D cells, CellTiter-Glo. The note with it: 72 hours treatment, CellTiter-Glo 2.0. In kind it is cell-based, human. Put shortly: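 Cells are plated at 3000/well and allowed 24 h before treatment. Test compound in medium containing 0.5% DMSO is then added, with DMSO-only wells as negative control, and plates are incubated 72 h at 37 °C. ATP luminescence (CellTiter-Glo 2.0) is then fitted to four parameters to derive GI50.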

A further assay addresses BRD4-BD1 (Homo sapiens (Human), UniProt O60885). Description: bromoKdELECT assay for binding affinity to BRD4-BD1. The note with it: 11-point 3-fold dilution. The protocol: (§2) Compounds were tested using a bromoKdELECT assay. T7 phage strains displaying bromodomains were grown in parallel in 24-well blocks in an E. coli host derived from the BL21 strain. E. coli were grown to log-phase and infected with T7 phage from a frozen stock (multiplicity of infection=0.4) and incubated with shaking at 32° C. until lysis (90-150 minutes). The lysates were centrifuged (5,000×g) and filtered (0.2 μm) to remove cell debris. Streptavidin-coated magnetic beads were treated with biotinylated small molecule or acetylated peptide ligands for 30 minutes at room temperature to generate affinity resins for bromodomain assays. The liganded beads were blocked with excess biotin and washed with blocking buffer (SeaBlock (Pierce), 1% BSA, 0.05% Tween 20, 1 mM DTT) to remove unbound ligand and to reduce nonspecific phage binding. Binding reactions were assembled by combining bromodomains, liganded affinity beads, and test compounds in 1× binding buffer (17% SeaBlock, 0.33×PBS, 0.04% Tween 20, 0.02% BSA, 0.004% Sodium azide, 7.4 mM DTT). Test compounds were prepared as 1000× stocks in 100% DMSO. Kds were determined using an 11-point 3-fold compound dilution series with one DMSO control point. All compounds for Kd measurements are distributed by acoustic transfer (non-contact dispensing) in 100% DMSO. The compounds were then diluted directly into the assays such that the final concentration of DMSO was 0.09%. All reactions performed in polypropylene 384-well plates. Each was a final volume of 0.02 ml. The assay plates were incubated at room temperature with shaking for 1 hour and the affinity beads were washed with wash buffer (1×PBS, 0.05% Tween 20). The beads were then resuspended in elution buffer (1×PBS, 0.05% Tween 20, 2 μM non-biotinylated affinity ligand) and incubated at room temperature with shaking for 30 minutes. The bromodomain concentration in the eluates was measured by qPCR.

In the next assay the target is BRD4-BD2 (Homo sapiens (Human), UniProt O60885). The assay is described as follows: bromoKdELECT assay for binding affinity to BRD4-BD2. The note with it: 11-point 3-fold dilution. As to the method: as §2
The target of assay [3] is progesterone receptor ligand binding domain (LBD) (Homo sapiens (Human), UniProt P06401). Description: FP assay for binding affinity to progesterone receptor (PolarScreen Progesterone Receptor Competitor Assay). Conditions: GST-tagged PR LBD, Fluormone tracer, fluorescence polarization, 2 hours at room temperature. The protocol:
Compounds were tested using the PolarScreen™ Progesterone Receptor Competitor Assay Kit (Life Technologies Cat #A15905 or a15906), as per the manufacturer's instructions. Briefly, GST-tagged PR LBD, Fluormone tracer, and compound were mixed and incubated for 2 hours at room temperature in the dark. Following incubation, the plates were spun at 3000×g for 30 seconds, then sealed with an optical adhesive cover, and fluorescence polarization was measured using appropriate excitation and emission filters with an EnVision Plate Reader (Perkin Elmer). Compound concentration vs. mP value were plotted in Prism (GraphPad). A four-parameter non-linear regression curve fit was applied to dose-response data to determine the half-maximal inhibitory concentration (IC50) for each test compound.
Background: Polarisation of emitted light reports the rotation of a fluorescent probe.

The target in another assay is progesterone receptor (Homo sapiens, UniProt P06401). The assay is described as follows: PR Human Progesterone NHR Binding (Agonist Radioligand) Assay, [3H]progesterone, T47D cytosol. Conditions: 0.5 nM [3H]progesterone, T47D cytosolic fractions, 1 hour at 4° C., legend words it as Kd. As to the method: Compounds were tested using the PR Human Progesterone NHR Binding (Agonist Radioligand) Assay, Cerep at Eurofins Discovery using a modified version of the protocol from Sarup et al. (Cancer Res 1988; 48:5071-5078). Briefly, cytosolic fractions of T47D cells were incubated with 0.5 nM [^3H]progesterone for 1 hour at 4° C. in the absence or presence of the test compound. Nonspecific binding was determined in the presence of 1 μM promegestone. Reactions were subjected to scintillation counting. Results are expressed as a percent inhibition of the control radioligand specific binding.
Sequence of progesterone receptor (P06401 whole entry, looked up): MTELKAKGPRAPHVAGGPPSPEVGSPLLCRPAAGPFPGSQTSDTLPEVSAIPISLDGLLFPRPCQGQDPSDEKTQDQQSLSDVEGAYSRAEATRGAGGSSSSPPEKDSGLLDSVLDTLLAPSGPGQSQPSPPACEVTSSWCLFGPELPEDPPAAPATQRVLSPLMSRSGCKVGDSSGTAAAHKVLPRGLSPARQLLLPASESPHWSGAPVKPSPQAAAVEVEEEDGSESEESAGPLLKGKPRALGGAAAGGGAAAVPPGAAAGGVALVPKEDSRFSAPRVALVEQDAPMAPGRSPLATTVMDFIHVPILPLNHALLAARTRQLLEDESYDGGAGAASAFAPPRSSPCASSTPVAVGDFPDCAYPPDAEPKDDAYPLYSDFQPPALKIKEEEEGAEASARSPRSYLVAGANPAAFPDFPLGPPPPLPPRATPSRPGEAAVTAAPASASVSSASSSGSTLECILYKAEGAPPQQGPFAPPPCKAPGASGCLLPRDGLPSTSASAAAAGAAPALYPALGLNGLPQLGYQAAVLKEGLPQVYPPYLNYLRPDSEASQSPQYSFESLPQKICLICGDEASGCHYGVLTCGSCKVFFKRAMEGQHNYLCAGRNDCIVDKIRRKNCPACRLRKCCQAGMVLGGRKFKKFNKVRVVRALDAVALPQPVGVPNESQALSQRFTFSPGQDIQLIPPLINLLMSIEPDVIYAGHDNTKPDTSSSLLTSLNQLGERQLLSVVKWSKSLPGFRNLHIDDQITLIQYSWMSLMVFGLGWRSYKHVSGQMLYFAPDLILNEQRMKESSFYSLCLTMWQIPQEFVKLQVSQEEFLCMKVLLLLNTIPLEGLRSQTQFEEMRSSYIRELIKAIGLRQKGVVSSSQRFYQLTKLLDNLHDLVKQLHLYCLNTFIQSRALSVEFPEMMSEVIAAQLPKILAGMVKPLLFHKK

The GI50 is the concentration giving 50% growth inhibition. For orientation: Kd means the equilibrium constant for the complex coming apart. For orientation: IC50 means the concentration needed to halve the response being measured. Read a high IC50 as weaker potency. The term Ki denotes the equilibrium dissociation constant of an inhibitor or competing ligand from its target. A low value points to a stronger hold on the target.

Like-named read-outs stand apart in the source and are kept apart here.

Sequence of progesterone receptor ligand binding domain (LBD) (P06401 679-913): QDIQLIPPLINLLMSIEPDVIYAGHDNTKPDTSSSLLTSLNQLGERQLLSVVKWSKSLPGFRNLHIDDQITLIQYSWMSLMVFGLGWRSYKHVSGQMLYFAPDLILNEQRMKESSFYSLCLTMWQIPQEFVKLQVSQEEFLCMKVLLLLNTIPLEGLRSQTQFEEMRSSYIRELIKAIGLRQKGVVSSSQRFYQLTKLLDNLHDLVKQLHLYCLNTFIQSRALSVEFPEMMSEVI

For `CCS(=O)(=O)Nc1ccc(Oc2cccc(OCCOC3CCN(c4ccc(C(=O)N[C@H]5CC[C@H](Oc6ccc(C#N)c(Cl)c6)CC5)nc4)CC3)c2)c(-c2cn(C)c(=O)c3[nH]ccc23)c1` [I-9, N-[4-(3-chloro-4-cyano-phenoxy)cyclohexyl]-5-[4-[2-[3-[4-(ethylsulfonylamino)-2-(6-methyl-7-oxo-1H-pyrrolo[2,3-c]pyridin-4-yl)phenoxy]phenoxy]ethoxy]-1-piperidyl]pyridine-2-carboxamide], the GI50 (in assay [1]; with VCaP cells (Homo sapiens); in assay [2]) was below 500 nM each time. The compound further showed a Kd on androgen receptor of 500 to 2500 nM.
Regarding `Cn1cc(-c2cc(C(C)(C)O)ccc2Oc2ccc(C3CN(c4ccc(C(=O)N[C@H]5CC[C@H](Oc6ccc(C#N)c(Cl)c6)CC5)nn4)C3)cc2)c2cc[nH]c2c1=O` [I-104], the GI50 is below 500 nM in the assay with T47D cells, 500 to 1500 nM in [1], below 500 nM in the assay on VCaP cells and below 500 nM in [2]. The compound also returned a dissociation constant (Kd) at androgen receptor below 50 nM.
In the case of `CCS(=O)(=O)Nc1ccc(Oc2cccc(OCCOC3CCN(c4cnc(C(=O)N[C@H]5CC[C@H](Oc6ccc(C#N)c(Cl)c6)CC5)nc4)CC3)c2)c(-c2cn(C)c(=O)c3[nH]ccc23)c1` [I-10, N-[4-(3-chloro-4-cyano-phenoxy)cyclohexyl]-5-[4-[2-[3-[4-(ethylsulfonylamino)-2-(6-methyl-7-oxo-1H-pyrrolo[2,3-c]pyridin-4-yl)phenoxy]phenoxy]ethoxy]-1-piperidyl]pyrimidine-2-carboxamide], the GI50 in assay [1] was above 3000 nM; in the assay on VCaP cells (Homo sapiens) it was below 500 nM; in assay [2] it was below 500 nM. The Kd on androgen receptor is 50 to 500 nM.
Turning to `Cn1cc(-c2cc(C(C)(C)O)ccc2Oc2ccc(CCC3CCN(c4cnc(C(=O)N[C@H]5CC[C@H](Oc6ccc(C#N)c(Cl)c6)CC5)cn4)CC3)cc2)c2cc[nH]c2c1=O` [I-119], the GI50 (with T47D cells; in assay [1]; in the assay with VCaP cells; in [2]) was below 500 nM throughout. This compound displayed a Kd on androgen receptor of 500 to 2500 nM.
For the compound `Cn1cc(-c2cc(S(=O)(=O)CCCCOC3CCN(c4ccc(C(=O)NC5CCC(Oc6ccc(C#N)c(Cl)c6)CC5)nn4)CC3)ccc2Oc2ccc(F)cc2F)c2cc[nH]c2c1=O` (stereo not shown) [I-92, N-[4-(3-chloro-4-cyano-phenoxy)cyclohexyl]-6-[4-[4-[4-(2,4-difluorophenoxy)-3-(6-methyl-7-oxo-1H-pyrrolo[2,3-c]pyridin-4-yl)phenyl]sulfonylbutoxy]-1-piperidyl]pyridazine-3-carboxamide], the Kd at BRD4-BD1 and at BRD4-BD2 was above 2500 nM each time. The figures for the GI50 (in [1]; with VCaP cells (Homo sapiens); in [2]) were above 3000 nM, above 3000 nM and below 500 nM, respectively. Moreover, in [3], the IC50 lay in the range of 50 to 500 nM.
For the compound `CCS(=O)(=O)Nc1ccc(Oc2cccc(OCCOC3CCN(c4ccc(C(=O)N[C@H]5CC[C@H](Oc6ccc(C#N)c(Cl)c6)CC5)cn4)CC3)c2)c(-c2cn(C)c(=O)c3[nH]ccc23)c1` [I-7, N-[4-(3-chloro-4-cyano-phenoxy)cyclohexyl]-6-[4-[2-[3-[4-(ethylsulfonylamino)-2-(6-methyl-7-oxo-1H-pyrrolo[2,3-c]pyridin-4-yl)phenoxy]phenoxy]ethoxy]-1-piperidyl]pyridine-3-carboxamide], the GI50 (in assay [1]; with VCaP cells (Homo sapiens); in [2]) was below 500 nM throughout. Also, the Kd on androgen receptor lay in the range of 500 to 2500 nM.
For `CCS(=O)(=O)Cc1ccc(Oc2cccc(OCCOC3CCN(c4cnc(C(=O)N[C@H]5CC[C@H](Oc6ccc(C#N)c(Cl)c6)CC5)cn4)CC3)c2F)c(-c2cn(C)c(=O)c3[nH]ccc23)c1` [I-28], the GI50 (in [1]; in the assay on VCaP cells (Homo sapiens); in [2]) was below 500 nM throughout. On progesterone receptor, this compound showed a Ki of 500 to 2500 nM. The compound also registered a Kd on androgen receptor of 50 to 500 nM.
Take `CC(C)N(C1CCN(c2ccc(C(=O)N[C@H]3CC[C@H](Oc4ccc(C#N)c(Cl)c4)CC3)nn2)CC1)C1CN(c2cccc(Oc3ccc(C(C)(C)O)cc3-c3cn(C)c(=O)c4[nH]ccc34)c2F)C1` [I-141]: the GI50 in the assay with T47D cells was 500 to 1500 nM; in assay [1] it was 500 to 1500 nM; in the assay on VCaP cells it was above 3000 nM; in assay [2], below 500 nM. The IC50 in assay [3] lay in the range of 50 to 500 nM.
Regarding `CCS(=O)(=O)Nc1ccc(Oc2cccc(OCCOC3CCN(c4cnc(C(=O)N[C@H]5CC[C@H](Oc6ccc(C#N)c(Cl)c6)CC5)cn4)CC3)c2)c(-c2cn(C)c(=O)c3[nH]ccc23)c1` [I-8, N-[4-(3-chloro-4-cyano-phenoxy)cyclohexyl]-5-[4-[2-[3-[4-(ethylsulfonylamino)-2-(6-methyl-7-oxo-1H-pyrrolo[2,3-c]pyridin-4-yl)phenoxy]phenoxy]ethoxy]-1-piperidyl]pyrazine-2-carboxamide], the concentration for 50% growth inhibition (GI50) (in [1]; in the assay with VCaP cells (Homo sapiens); in assay [2]) was below 500 nM in each case. At androgen receptor, this compound had a Kd of 500 to 2500 nM.
`CCS(=O)(=O)Nc1ccc(Oc2cccc(OCCOC3CCN(c4ccc(C(=O)N[C@H]5CC[C@H](Oc6ccc(C#N)c(Cl)c6)CC5)cc4)CC3)c2)c(-c2cn(C)c(=O)c3[nH]ccc23)c1` [I-6, N-[4-(3-chloro-4-cyano-phenoxy)cyclohexyl]-4-[4-[2-[3-[4-(ethylsulfonylamino)-2-(6-methyl-7-oxo-1H-pyrrolo[2,3-c]pyridin-4-yl)phenoxy]phenoxy]ethoxy]-1-piperidyl]benzamide]: the 50% growth inhibitory concentration (GI50) (in assay [1]; with VCaP cells (Homo sapiens); in assay [2]) was below 500 nM throughout. The compound also displayed a Kd at androgen receptor of 500 to 2500 nM.
